Experiments:
TRα = molecular target: T1, TRα (Homo sapiens, UniProt P10827); experiment: Transactivation assay (DR4 TRE luciferase reporter, HEK 293), TRα; format: cell-based; settings: HEK 293 transfected with full length TRα-CMV, 24 hours, firefly luciferase normalized to Renilla
T1 construct: TR expression vector (full length TRα-CMV or TRβ-CMV); expressed in transfected cells; host or cells: HEK 293
T1 sequence (P10827 1-410 isoform P10827-2): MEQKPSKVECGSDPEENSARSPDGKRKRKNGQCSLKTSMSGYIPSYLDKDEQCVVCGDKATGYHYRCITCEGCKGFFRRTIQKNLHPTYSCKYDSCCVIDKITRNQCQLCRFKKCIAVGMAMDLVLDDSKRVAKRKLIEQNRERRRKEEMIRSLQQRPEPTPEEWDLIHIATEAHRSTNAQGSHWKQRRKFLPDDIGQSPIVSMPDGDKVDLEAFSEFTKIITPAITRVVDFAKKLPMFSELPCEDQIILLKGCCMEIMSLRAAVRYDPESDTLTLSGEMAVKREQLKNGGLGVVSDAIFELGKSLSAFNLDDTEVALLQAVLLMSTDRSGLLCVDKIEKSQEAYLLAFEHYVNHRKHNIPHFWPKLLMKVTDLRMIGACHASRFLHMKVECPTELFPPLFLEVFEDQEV
Procedure: (§1) The cells were trypsinized with 0.25% trypsin, then diluted to 5×10^5 cells/mL with high glucose DMEM. […] 1.5 µg of TR expression vector (full length TRα-CMV or TRβ-CMV), 1.5 µg of a reporter plasmid containing a DR4 thyroid hormone response element (TRE) direct repeat spaced by four nucleotides (AGGTCAcaggAGGTCA) cloned upstream of a minimal thymidine kinase promoter linked to a firefly luciferase coding sequence, and 0.75 µg of a pRL-SV40 constitutive Renilla luciferase reporter plasmid were diluted into 540 µl of OptiMEM. 27 µL of lipofectamine reagent was diluted into 540 µL of OptiMEM. The plasmid and lipofectamine dilutions were combined then incubated at RT for 10 min. The mixture was then diluted into 4.29 mL of OptiMEM. Plates were washed with 100 µL of phosphate buffered saline (PBS) at pH 7.2 without magnesium or calcium chloride per well. Transfection mixtures were added at 50 µL per well, then incubated at 37° C. for 4 hours. Modified DME/F-12 Ham’s medium without phenol red containing 15 mM HEPES and bicarbonate, 5 mM L-glutamine, charcoal-stripped FBS, 50 units/mL penicillin and 50 µg/mL streptomycin was added at 50 µL per well, then the plates were incubated at 37° C. for 20 hours. Drug stocks were made at 10 mM in DMSO, then serially diluted to 1X concentrations in DME/F-12 Ham’s. Plates were washed with 100 µL of PBS (pH 7.2) per well. 100 µL of each drug stock was added to the wells in triplicate, and then the plates are incubated at 37° C. for 24 hours.
(§2) Cells were assayed for luciferase activity using the Promega DualGlo kit. 50 µl of Luciferase Reagent was added per well, the plate was rocked for 15 min at RT, and then the plate was read for firefly luciferase activity. A 50 µl volume of Stop & Glo Reagent was added per well, then the plate was read for Renilla luciferase activity.

TRβ = molecular target: T2, TRβ (Homo sapiens, UniProt P10828); experiment: Transactivation assay (DR4 TRE luciferase reporter, HEK 293), TRβ; format: cell-based; settings: HEK 293 transfected with full length TRβ-CMV, 24 hours, firefly luciferase normalized to Renilla
T2 construct: TR expression vector (full length TRα-CMV or TRβ-CMV); expressed in transfected cells; host or cells: HEK 293
T2 sequence (P10828 1-461): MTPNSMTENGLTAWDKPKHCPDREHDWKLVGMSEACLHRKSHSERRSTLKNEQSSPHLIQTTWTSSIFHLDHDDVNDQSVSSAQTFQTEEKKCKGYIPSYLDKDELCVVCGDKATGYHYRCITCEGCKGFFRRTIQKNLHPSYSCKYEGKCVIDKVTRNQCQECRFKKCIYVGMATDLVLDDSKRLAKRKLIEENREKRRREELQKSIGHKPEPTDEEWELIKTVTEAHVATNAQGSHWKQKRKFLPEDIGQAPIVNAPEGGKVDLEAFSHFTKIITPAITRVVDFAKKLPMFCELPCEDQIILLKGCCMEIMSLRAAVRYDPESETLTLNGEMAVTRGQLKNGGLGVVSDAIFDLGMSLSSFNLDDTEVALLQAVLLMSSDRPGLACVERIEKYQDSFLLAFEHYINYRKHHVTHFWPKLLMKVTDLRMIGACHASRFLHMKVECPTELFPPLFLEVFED
Procedure: as §1, §2

[1] = molecular target: T3, Purified recombinant human FAAH (rhFAAH) (Homo sapiens, UniProt O00519); experiment: FAAH substrate evaluation (formation of acid metabolite); format: biochemical; settings: 0.5 ng/µL rhFAAH, 1 µM test compound, Tris-EDTA buffer pH 8.0, room temperature, 0-60 minutes
T3 construct: purchased Cayman Chemical (Ann Arbor, MI, USA)
T3 sequence (O00519 1-579): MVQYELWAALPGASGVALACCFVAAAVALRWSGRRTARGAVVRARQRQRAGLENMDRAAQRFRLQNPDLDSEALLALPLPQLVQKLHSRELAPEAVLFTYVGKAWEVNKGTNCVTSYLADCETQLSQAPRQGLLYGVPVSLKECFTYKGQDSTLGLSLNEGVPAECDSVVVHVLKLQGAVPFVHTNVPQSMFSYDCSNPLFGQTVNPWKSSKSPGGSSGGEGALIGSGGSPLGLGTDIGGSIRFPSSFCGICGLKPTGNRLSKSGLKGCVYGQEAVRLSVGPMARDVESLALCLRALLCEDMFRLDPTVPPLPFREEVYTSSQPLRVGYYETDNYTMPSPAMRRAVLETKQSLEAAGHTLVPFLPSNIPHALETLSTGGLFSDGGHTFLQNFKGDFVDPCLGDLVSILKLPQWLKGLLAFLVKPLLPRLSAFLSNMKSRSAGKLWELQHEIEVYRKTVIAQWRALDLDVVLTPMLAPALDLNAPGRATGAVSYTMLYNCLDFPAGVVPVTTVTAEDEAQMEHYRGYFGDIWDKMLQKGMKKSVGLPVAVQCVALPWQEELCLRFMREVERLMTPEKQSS
Procedure: Purified recombinant human FAAH (rhFAAH) was purchased from Cayman Chemical (Ann Arbor, MI, USA). The total volume for each incubation was 400 µL containing a final 0.5 ng/µL rhFAAH, 1 µM test compound, 1.25% ethanol or 1 µM PF-3845 (FAAH inhibitor), and 0.1% bovine serum albumin in Tris-EDTA buffer at pH 8.0). The positive control was LL-341001. The incubation was conducted at the room temperature. At 0, 5, 15, 30 and 60 minutes, an aliquot of 30 µL reaction mixtures was removed and mixed with 300 µL acetonitrile containing 5 ng/mL terfenadine and 10 ng/mL tolbutamide as internal standards to quench the reaction. The resulting mixture was centrifuged at 4000 rpm, 4° C. for 15 minutes, and 100 µL supernatant was ready for LC-MS/MS analysis to measure the formation of acid metabolite.
Acquity Ultra Performance LC system from Waters was used for sample analysis. The chromatography was performed on a reverse phase Kinetex 2.6 µm C18 column, 2.1 × 30 mm, 100 Å. The mobile phase A comprised of 0.1% formic acid in water and mobile phase B comprised of 0.1% formic acid in acetonitrile with a 2-min run time at the flow rate of 0.8 mL/min for the acid metabolite from positive control or a 1.5 min run time at the flow rate of 0.9 mL/min for the acid metabolite of test compounds. The mass spectrometer (API-5500 and API Q Trap 4000 Applied Biosystems/MDS SCIEX Instruments, Framingham, MA, USA) was operated under ESI positive or negative ion MRM mode.
The formation of acid metabolite was monitored and quantified using one calibration point of 1 µM. The observed rate constant (ke) for the acid metabolite formation was calculated by plotting the metabolite concentration versus time of incubation with the slope being ke and is shown in Table 1.

EC50 (TRα) [nM]	EC50 (TRβ) [nM]	Compound	ke (observed rate constant for the acid metabolite formation) [1]
1 to 1000	1 to 1000	2-(3,5-dichloro-4-(hydroxy-3-(propan-2-yl-d7)benzyl)phenoxy)acetic Acid [Compound 18]	–
–	–	[2H]C([2H])([2H])C([2H])(c1cc(Cc2c(Cl)cc(OCC(=O)NC)cc2Cl)ccc1O)C([2H])([2H])[2H] [Compound 1, 2-(3,5-dichloro-4-(4-hydroxy-3-(propan-2-yl-d7)benzyl)phenoxy)-N-Methylacetamide]	A (A = ke is less than 3.0 and more than or equal to 0.1.)
1 to 1000	1 to 1000	[2H]C([2H])(c1ccc(O)c(C(C)C)c1)c1c(Cl)cc(OCC(=O)O)cc1Cl [Compound 4, 2-(3,5-dichloro-4-((4-hydroxy-3-isopropylphenyl)methyl-d2)phenoxy)acetic Acid]	–
–	–	[2H]C([2H])(c1ccc(O)c(C(C)C)c1)c1c(Cl)cc(OCC(N)=O)cc1Cl [Compound 5, 2-(3,5-dichloro-4-((4-hydroxy-3-isopropylphenyl)methyl-d2)phenoxy)acetamide]	A (A = ke is less than 3.0 and more than or equal to 0.1.)
1 to 1000	1 to 1000	[2H]c1c(Cl)c(Cc2ccc(O)c(C(C)C)c2)c(Cl)c([2H])c1OCC(=O)O [Compound 6, 2-(3,5-dichloro-4-(4-hydroxy-3-isopropylbenzyl)phenoxy-2,6-d2)acetic Acid]	–
–	–	[2H]c1c(Cl)c(Cc2ccc(O)c(C(C)C)c2)c(Cl)c([2H])c1OCC(N)=O [Compound 7, 2-(3,5-dichloro-4-(4-hydroxy-3-isopropylbenzyl)phenoxy-2,6-d2)acetamide]	A (A = ke is less than 3.0 and more than or equal to 0.1.)
1 to 1000	1 to 1000	[2H]C([2H])(Oc1cc(Cl)c(Cc2ccc(O)c(C(C)C)c2)c(Cl)c1)C(=O)O [Compound 8, 2-(3,5-dichloro-4-(4-hydroxy-3-isopropylbenzyl)phenoxy)acetic-2,2-d2 Acid]	–
–	–	[2H]C([2H])(Oc1cc(Cl)c(Cc2ccc(O)c(C(C)C)c2)c(Cl)c1)C(N)=O [Compound 9, 2-(3,5-dichloro-4-(4-hydroxy-3-isopropylbenzyl)phenoxy)acetamide-2,2-d2]	A (A = ke is less than 3.0 and more than or equal to 0.1.)
–	–	[2H]C([2H])(c1ccc(O)c(C(C)C)c1)c1c(C)cc(OCC(=O)NC)cc1C [Compound 13, 2-(4-((4-hydroxy-3-isopropylphenyl)methyl-d2)-3,5-dimethylphenoxy)-N-methylacetamide]	A (A = ke is less than 3.0 and more than or equal to 0.1.)
–	–	[2H]C([2H])(Oc1cc(C)c(Cc2ccc(O)c(C(C)C)c2)c(C)c1)C(=O)NC [Compound 17, 2-(4-(4-hydroxy-3-isopropylbenzyl)-3,5-dimethylphenoxy)-N-methylacetamide-2,2-d2]	A (A = ke is less than 3.0 and more than or equal to 0.1.)
1 to 1000	1 to 1000	[2H]C([2H])([2H])C([2H])(c1cc(Cc2c(Cl)cc(OCC(=O)O)cc2Cl)ccc1O)C([2H])([2H])[2H] [Compound A-15]	–

Reference: patent US20230348364A1, “ISOTOPIC THYROMIMETIC COMPOUNDS” (Autobahn Therapeutics, Inc., priority 2020, published 2023)
